Like-named read-outs stand apart in the source and are kept apart here.
Key:
HCV genotype 1b replicon = assay: HCV replicon assay, genotype 1b replicon EC50; type: cell-based, Hepatitis C virus; conditions: Hepatitis C virus, genotype 1b replicon, read-out: EC50 [gt-1b]
How it was run: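 Cells harbouring a stable replicon are grown under G418 selection, then plated with test compound in G418-free medium for 24-48 hours. After washing and lysis, RNA or luciferase signal is measured and expressed as percent of DMSO control to give EC50.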

[1] = target: HCV NS3/4A protease genotype 1b (Hepatitis C virus genotype 1b, UniProt P26663); assay: HCV NS3/4A protease time-resolved fluorescence (TRF) assay, Ki against genotype 1b; type: biochemical; conditions: IC50 [gt-1b] (nM), NS3/4A genotype 1b, enzyme 0.2 nM
How it was run: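 Ki was converted from fitted IC50 using IC50=Ki(1+[S]/KM) and 25 nM substrate. Protease (genotype 1b 0.2 nM, A156T 0.4 nM, 3a 0.025 nM) and compound were pre-mixed 30 min in pH 7.5 HEPES/NaCl/glycerol/DTT buffer. Cleavage then proceeded 2.5 h at room temperature, detected by time-resolved europium fluorescence (340/615 nm).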

| Compound | EC50 (HCV genotype 1b replicon) [nM] | IC50 [1] [nM] | EC50 (HCV genotype 1b replicon; K+ salt) [nM] | IC50 ([1]; K+ salt) [nM] |
| --- | --- | --- | --- | --- |
| Cc1nc2ccccc2c2c1O[C@]1(CC2)C[C@H]2C(=O)N[C@]3(C(=O)NS(=O)(=O)C4(C)CC4)C[C@H]3/C=C\CCCCC[C@H](NC(=O)OC(C)(C)C(F)(F)C(F)(F)F)C(=O)N2C1 [Example 300, 3,3,4,4,4-pentafluoro-2-methylbutan-2-yl [(2R,6S,12Z,13aS,14aR,16aS)-5′-methyl-14a-{[(1-methylcyclopropyl)sulfonyl]carbamoyl}-5,16-dioxo-1,1′,2′,5,6,7,8,9,10,11,13a,14,14a,15,16,16a-hexadecahydrospiro[cyclopropa[e]pyrrolo[1,2-a][1,4]diazacyclopentadecine-2,3′-pyrano[2,3-c]quinolin]-6-yl]carbamate] | 3.12 | 0.021 |  |  |
| Cc1nc2ccc(OCC(F)(F)F)cc2c2c1O[C@]1(CC2)C[C@H]2C(=O)N[C@]3(C(=O)NS(=O)(=O)C4(C)CC4)C[C@H]3/C=C\CCCCC[C@H](NC(=O)OC(C)(C)C(F)(F)F)C(=O)N2C1 [Example 301, 1,1,1-trifluoro-2-methylpropan-2-yl [(2R,6S,12Z,13aS,14aR,16aS)-5′-methyl-14a-{[(1-methylcyclopropyl)sulfonyl]carbamoyl}-5,16-dioxo-9′-(2,2,2-trifluoroethoxy)-1,1′,2′,5,6,7,8,9,10,11,13a,14,14a,15,16,16a-hexadecahydrospiro[cyclopropa[e]pyrrolo[1,2-a][1,4]diazacyclopentadecine-2,3′-pyrano[2,3-c]quinolin]-6-yl]carbamate] | 3.46 | 0.013 |  |  |
| Cc1nc2ccc(OCC(F)(F)F)cc2c2c1O[C@]1(CC2)C[C@H]2C(=O)N[C@]3(C(=O)NS(=O)(=O)C4(C)CC4)C[C@H]3/C=C\CCCCC[C@H](NC(=O)OC3(C)CCCC3)C(=O)N2C1 [Example 302, 1-methylcyclopentyl [(2R,6S,12Z,13aS,14aR,16aS)-5′-methyl-14a-{[(1-methylcyclopropyl)sulfonyl]carbamoyl}-5,16-dioxo-9′-(2,2,2-trifluoroethoxy)-1,1′,2′,5,6,7,8,9,10,11,13a,14,14a,15,16,16a-hexadecahydrospiro[cyclopropa[e]pyrrolo[1,2-a][1,4]diazacyclopentadecine-2,3′-pyrano[2,3-c]quinolin]-6-yl]carbamate] | 4.19 | 0.006 |  |  |
| Cc1nc2ccc(OCC(F)(F)F)cc2c2c1O[C@]1(CC2)C[C@H]2C(=O)N[C@]3(C(=O)NS(=O)(=O)C4(C)CC4)C[C@H]3/C=C\CCCCC[C@H](NC(=O)OCC(C)(C)C)C(=O)N2C1 [Example 303, 2,2-dimethylpropyl [(2R,6S,12Z,13aS,14aR,16aS)-5′-methyl-14a-{[(1-methylcyclopropyl)sulfonyl]carbamoyl}-5,16-dioxo-9′-(2,2,2-trifluoroethoxy)-1,1′,2′,5,6,7,8,9,10,11,13a,14,14a,15,16,16a-hexadecahydrospiro[cyclopropa[e]pyrrolo[1,2-a][1,4]diazacyclopentadecine-2,3′-pyrano[2,3-c]quinolin]-6-yl]carbamate] | 5.79 | 0.012 |  |  |
| Cc1nc2ccccc2c2c1O[C@]1(CC2)C[C@H]2C(=O)N[C@]3(C(=O)NS(=O)(=O)C4(C)CC4)C[C@H]3/C=C\CCCCC[C@H](NC(=O)OC(C)(C)CCS(=O)(=O)C(C)C)C(=O)N2C1 [Example 304, 2-methyl-4-(propan-2-ylsulfonyl)butan-2-yl [(2R,6S,12Z,13aS,14aR,16aS)-5′-methyl-14a-{[(1-methylcyclopropyl)sulfonyl]carbamoyl}-5,16-dioxo-1,1′,2′,5,6,7,8,9,10,11,13a,14,14a,15,16,16a-hexadecahydrospiro[cyclopropa[e]pyrrolo[1,2-a][1,4]diazacyclopentadecine-2,3′-pyrano[2,3-c]quinolin]-6-yl]carbamate] | 99.6 | 0.027 |  |  |
| Cc1nc2ccc(OC(F)(F)F)cc2c2c1O[C@]1(CC2)C[C@H]2C(=O)N[C@]3(C(=O)NS(=O)(=O)C4(C)CC4)C[C@H]3/C=C\CCCCC[C@H](NC(=O)OC(C)(C)CCS(=O)(=O)C(C)C)C(=O)N2C1 [Example 305, 2-methyl-4-(propan-2-ylsulfonyl)butan-2-yl [(2R,6S,12Z,13aS,14aR,16aS)-5′-methyl-14a-{[(1-methylcyclopropyl)sulfonyl]carbamoyl}-5,16-dioxo-9′-(trifluoromethoxy)-1,1′,2′,5,6,7,8,9,10,11,13a,14,14a,15,16,16a-hexadecahydrospiro[cyclopropa[e]pyrrolo[1,2-a][1,4]diazacyclopentadecine-2,3′-pyrano[2,3-c]quinolin]-6-yl]carbamate] | 35.2 | 0.029 |  |  |
| CC(C)(C)OC(=O)N[C@H]1CCCCC/C=C\[C@@H]2C[C@@]2(C(=O)NS(=O)(=O)C2(C)CC2)NC(=O)[C@@H]2C[C@]3(CCc4c(c(C(F)F)nc5ccccc45)O3)CN2C1=O [Example 306, tert-butyl [(2R,6S,12Z,13aS,14aR,16aS)-5′-(difluoromethyl)-14a-{[(1-methylcyclopropyl)sulfonyl]carbamoyl}-5,16-dioxo-1,1′,2′,5,6,7,8,9,10,11,13a,14,14a,15,16,16a-hexadecahydrospiro[cyclopropa[e]pyrrolo[1,2-a][1,4]diazacyclopentadecine-2,3′-pyrano[2,3-c]quinolin]-6-yl]carbamate] | 1.87 | 0.015 |  |  |
| Cc1nc2ccccc2c2c1O[C@]1(CC2)C[C@H]2C(=O)N[C@]3(C(=O)NS(=O)(=O)C4(C)CC4)C[C@H]3/C=C\CCCCC[C@H](NC(=O)OC(C)(C(F)(F)F)C(F)(F)F)C(=O)N2C1 [Example 307, 1,1,1,3,3,3-hexafluoro-2-methylpropan-2-yl [(2R,6S,12Z,13aS,14aR,16aS)-5′-methyl-14a-{[(1-methylcyclopropyl)sulfonyl]carbamoyl}-5,16-dioxo-1,1′,2′,5,6,7,8,9,10,11,13a,14,14a,15,16,16a-hexadecahydrospiro[cyclopropa[e]pyrrolo[1,2-a][1,4]diazacyclopentadecine-2,3′-pyrano[2,3-c]quinolin]-6-yl]carbamate] | 1080 | 0.019 |  |  |
| Cc1nc2ccc(OCC(F)(F)F)cc2c2c1O[C@]1(CC2)C[C@H]2C(=O)N[C@]3(C(=O)NS(=O)(=O)C4(C)CC4)C[C@H]3/C=C\CCCCC[C@H](NC(=O)OC(C)(C(F)(F)F)C(F)(F)F)C(=O)N2C1 [Example 308, 1,1,1,3,3,3-hexafluoro-2-methylpropan-2-yl [(2R,6S,12Z,13aS,14aR,16aS)-5′-methyl-14a-{[(1-methylcyclopropyl)sulfonyl]carbamoyl}-5,16-dioxo-9′-(2,2,2-trifluoroethoxy)-1,1′,2′,5,6,7,8,9,10,11,13a,14,14a,15,16,16a-hexadecahydrospiro[cyclopropa[e]pyrrolo[1,2-a][1,4]diazacyclopentadecine-2,3′-pyrano[2,3-c]quinolin]-6-yl]carbamate] | 416 | 0.006 |  |  |
| CC(C)(OC(=O)N[C@H]1CCCCC/C=C\[C@@H]2C[C@@]2(C(=O)NS(=O)(=O)C2(C)CC2)NC(=O)[C@@H]2C[C@]3(CCc4c(c(C(F)F)nc5ccccc45)O3)CN2C1=O)C(F)(F)F [Example 309, 1,1,1-trifluoro-2-methylpropan-2-yl [(2R,6S,12Z,13aS,14aR,16aS)-5′-(difluoromethyl)-14a-{[(1-methylcyclopropyl)sulfonyl]carbamoyl}-5,16-dioxo-1,1′,2′,5,6,7,8,9,10,11,13a,14,14a,15,16,16a-hexadecahydrospiro[cyclopropa[e]pyrrolo[1,2-a][1,4]diazacyclopentadecine-2,3′-pyrano[2,3-c]quinolin]-6-yl]carbamate] | 1.94 | 0.01 |  |  |
| Cc1nc2ccc(OC(F)F)cc2c2c1O[C@]1(CC2)C[C@H]2C(=O)N[C@]3(C(=O)NS(=O)(=O)C4(C)CC4)C[C@H]3/C=C\CCCCC[C@H](NC(=O)OC(C)(C)C(F)(F)F)C(=O)N2C1 [Example 310, 1,1,1-trifluoro-2-methylpropan-2-yl [(2R,6S,12Z,13aS,14aR,16aS)-9′-(difluoromethoxy)-5′-methyl-14a-{[(1-methylcyclopropyl)sulfonyl]carbamoyl}-5,16-dioxo-1,1′,2′,5,6,7,8,9,10,11,13a,14,14a,15,16,16a-hexadecahydrospiro[cyclopropa[e]pyrrolo[1,2-a][1,4]diazacyclopentadecine-2,3′-pyrano[2,3-c]quinolin]-6-yl]carbamate] |  |  | 5.66 | 0.008 |
| CC(C)(C)COC(=O)N[C@H]1CCCCC/C=C\[C@@H]2C[C@@]2(C(=O)NS(=O)(=O)C2(C)CC2)NC(=O)[C@@H]2C[C@]3(CCc4c(c(C(F)F)nc5ccccc45)O3)CN2C1=O [Example 311, 2,2-dimethylpropyl [(2R,6S,12Z,13aS,14aR,16aS)-5′-(difluoromethyl)-14a-{[(1-methylcyclopropyl)sulfonyl]carbamoyl}-5,16-dioxo-1,1′,2′,5,6,7,8,9,10,11,13a,14,14a,15,16,16a-hexadecahydrospiro[cyclopropa[e]pyrrolo[1,2-a][1,4]diazacyclopentadecine-2,3′-pyrano[2,3-c]quinolin]-6-yl]carbamate] | 1.23 | 0.008 |  |  |
| CCc1nc2ccc(OC)cc2c2c1O[C@]1(CC2)C[C@H]2C(=O)N[C@]3(C(=O)NS(=O)(=O)C4(C)CC4)C[C@H]3/C=C\CCCCC[C@H](NC(=O)OC(C)(C)C)C(=O)N2C1 [Example 312, tert-butyl [(2R,6S,12Z,13aS,14aR,16aS)-5′-ethyl-9′-methoxy-14a-{[(1-methylcyclopropyl)sulfonyl]carbamoyl}-5,16-dioxo-1,1′,2′,5,6,7,8,9,10,11,13a,14,14a,15,16,16a-hexadecahydrospiro[cyclopropa[e]pyrrolo[1,2-a][1,4]diazacyclopentadecine-2,3′-pyrano[2,3-c]quinolin]-6-yl]carbamate] | 3.56 | 0.009 |  |  |

— patent US8987195B2 (priority 2012, dated 2015)
